Laboratory results: the supplement of paper PMC10307832

How the values were obtained:
Assay in all cases: relative viability (nuclei count vs DMSO), 5 days (fraction); higher = more cells survive
[1] = compound: CC(C)C[C@H](NC(=O)[C@H](CCc1ccccc1)NC(=O)CN1CCOCC1)C(=O)N[C@@H](Cc1ccccc1)C(=O)N[C@@H](CC(C)C)C(=O)[C@@]1(C)CO1 [Carfilzomib] + Cc1nc(Nc2ncc(C(=O)Nc3c(C)cccc3Cl)s2)cc(N2CCN(CCO)CC2)n1 [Dasatinib] (partner 0.075 µM)
Summary of the method: (§1)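 A single step with final 0.05% Triton X-100, 1% formaldehyde and 1 ug/ml Hoechst fixed the cells and stained nuclei 5 days after treatment. Lung cancer cell lines in 1536-well plates had been treated by pin tool the day after seeding with one drug alone or a fixed anchor-drug dose plus five library-drug doses (not always all listed) in √10 steps, and nuclei were counted on 4× images. Relative viability is the ratio of nuclei in treated wells to nuclei in vehicle wells, taken as the median of duplicate plates.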

[2] = compound: CC(C)C[C@H](NC(=O)[C@H](CCc1ccccc1)NC(=O)CN1CCOCC1)C(=O)N[C@@H](Cc1ccccc1)C(=O)N[C@@H](CC(C)C)C(=O)[C@@]1(C)CO1 [Carfilzomib] + O=C(CCCCCCC(=O)Nc1ccccc1)NO [Vorinostat] (partner 1 µM)
Summary of the method: as §1

[3] = compound: O=C(c1cc(Cc2n[nH]c(=O)c3ccccc23)ccc1F)N1CCN(C(=O)C2CC2)CC1 [Olaparib] + NC(=O)Nc1cc(-c2cccc(F)c2)sc1C(=O)N[C@H]1CCCNC1 [AZD7762] (partner 0.2 µM)
Summary of the method: as §1

[4] = compound: O=C(c1cc(Cc2n[nH]c(=O)c3ccccc23)ccc1F)N1CCN(C(=O)C2CC2)CC1 [Olaparib] + O=C(CCCCCCC(=O)Nc1ccccc1)NO [Vorinostat] (partner 1 µM)
Summary of the method: as §1

| Cell Line | relative viability ([1]; first compound 0.001 µM) | relative viability ([1]; first compound 0.003162 µM) | relative viability ([1]; first compound 0.01 µM) | relative viability ([1]; first compound 0.03162 µM) | relative viability ([1]; first compound 0.1 µM) | relative viability ([2]; first compound 0.001 µM) | relative viability ([2]; first compound 0.003162 µM) | relative viability ([2]; first compound 0.01 µM) | relative viability ([2]; first compound 0.03162 µM) | relative viability ([2]; first compound 0.1 µM) | relative viability ([3]; first compound 0.08 µM) | relative viability ([3]; first compound 0.253 µM) | relative viability ([3]; first compound 2.53 µM) | relative viability ([3]; first compound 8 µM) | relative viability ([4]; first compound 0.08 µM) | relative viability ([4]; first compound 0.253 µM) | relative viability ([4]; first compound 2.53 µM) | relative viability ([4]; first compound 8 µM) |
| --- | --- | --- | --- | --- | --- | --- | --- | --- | --- | --- | --- | --- | --- | --- | --- | --- | --- | --- |
| HCC-78 | 0.228 | 0.459 | 0.323 | 0.435 | 0.2 | 0.433 | 0.467 | 0.461 | 0.303 | 0.283 | 0.839 | 0.664 | 0.672 | 0.737 | 0.443 | 0.429 | 0.377 | 0.557 |
| HCC-366 | 0.624 | 0.727 | 0.629 | 0.705 | 0.173 | 0.315 | 0.444 | 0.313 | 0.0693 | 0.0215 | 0.258 | 0.196 | 0.168 | 0.0718 | 0.352 | 0.273 | 0.191 | 0.101 |
| HCC-827 | 0.3 | 0.306 | 0.239 | 0.374 | 0.273 | 0.821 | 0.913 | 0.943 | 0.673 | 0.189 | 0.259 | 0.214 | 0.239 | 0.224 | 0.818 | 0.723 | 0.893 | 0.766 |
| HOP-62 | 0.618 | 0.655 | 0.499 | 0.0996 | 0.0979 | 0.559 | 0.632 | 0.215 | 0.0689 | 0.0634 | 0.43 | 0.614 | 0.463 | 0.155 | 0.757 | 0.575 | 0.675 | 0.379 |
| IA-LM |  |  |  |  |  | 0.921 | 0.889 | 0.932 | 0.193 | 0.0116 |  |  |  |  | 1.15 | 0.921 | 0.9 | 0.817 |
| LC-2-ad | 0.475 | 0.711 | 0.796 | 0.475 | 0.256 | 0.811 | 0.755 | 0.75 | 0.44 | 0.245 | 0.89 | 0.76 | 0.851 | 0.727 | 0.749 | 0.604 | 0.66 | 0.495 |
| NCI-H520 | 0.204 | 0.17 | 0.168 | 0.188 | 0.213 | 0.684 | 0.605 | 0.192 | 0.156 | 0.148 |  |  |  |  | 0.822 | 0.684 | 0.554 | 0.341 |
| NCI-H661 | 0.911 | 1.07 | 1.03 | 0.72 | 0.172 | 0.821 | 0.861 | 0.808 | 0.553 | 0.215 |  |  |  |  | 0.885 | 0.715 | 0.692 | 0.551 |
| NCI-H1563 | 0.431 | 0.463 | 0.488 | 0.505 | 0.367 |  |  |  |  |  |  |  |  |  |  |  |  |  |
| NCI-H1623 | 0.509 | 0.571 | 0.599 | 0.271 | 0.642 |  |  |  |  |  |  |  |  |  |  |  |  |  |
| NCI-H1648 |  |  |  |  |  | 0.64 | 0.613 | 0.954 | 0.28 | 0.212 | 0.831 | 0.75 |  | 0.544 | 0.392 | 0.477 |  | 0.37 |
| NCI-H1650 | 0.282 | 0.304 | 0.207 | 0.165 | 0.172 | 0.65 | 0.475 | 0.19 | 0.152 | 0.127 |  |  |  |  | 0.531 | 0.522 | 0.671 | 0.476 |
| NCI-H1703 |  |  |  |  |  |  |  |  |  |  | 0.119 | 0.193 | 0.143 | 0.141 |  |  |  |  |
| NCI-H1792 | 0.753 | 0.9 | 0.918 | 0.657 | 0.649 |  |  |  |  |  | 0.774 | 0.559 | 0.496 | 0.254 |  |  |  |  |
| NCI-H2009 | 0.293 | 0.386 | 0.3 | 0.113 | 0.0713 | 0.717 | 0.821 | 0.757 | 0.179 | 0.0653 |  |  |  |  | 0.836 | 0.666 | 0.674 | 0.645 |
| NCI-H2023 | 0.569 | 0.698 | 0.59 | 0.181 | 0.082 | 0.471 | 0.657 | 0.619 | 0.224 | 0.0546 |  |  |  |  | 0.734 | 0.531 | 0.507 | 0.315 |
| NCI-H2228 | 0.539 | 0.526 | 0.442 | 0.0721 | 0.0819 | 0.728 | 0.657 | 0.468 | 0.101 | 0.0952 |  |  |  |  | 0.587 | 0.541 | 0.742 | 0.449 |
| SK-LU-1 | 0.167 | 0.189 | 0.236 | 0.0906 | 0.117 | 0.772 | 0.864 | 0.533 | 0.219 | 0.198 |  |  |  |  | 0.847 | 0.705 | 0.726 | 0.545 |
| SK-MES-1 | 0.323 | 0.454 | 0.409 | 0.197 | 0.107 | 1.11 | 1.12 | 1.15 | 0.579 | 0.156 |  |  |  |  | 1.04 | 0.985 | 1.06 | 0.914 |
| SW 1573 | 0.653 | 0.764 | 0.372 | 0.0426 | 0.0643 | 0.648 | 1.31 | 0.243 | 0.0435 | 0.041 |  |  |  |  | 1.08 | 0.693 | 0.711 | 0.489 |
| UMC-11 | 0.52 | 0.412 | 0.415 | 0.393 | 0.184 | 0.413 | 0.395 | 0.394 | 0.308 | 0.115 |  |  |  |  | 0.392 | 0.324 | 0.365 | 0.208 |
